Source: publication PMC3884839, “Pharmacokinetics and pharmacodynamics utilizing unbound target tissue exposure as part of a disposition-based rationale for lead optimization of benzoxaboroles in the treatment of Stage 2 Human African Trypanosomiasis” (Parasitology, 2013)
≈ marks a conversion by molar mass, not a printed value.

Key:
L929 mammalian cell line = assay: L929 mammalian cell cytotoxicity / selectivity; assay type: cell-based
[1] = Binding to human plasma protein by rapid equilibrium dialysis; assay type: in vitro ADME; details: 1 μg mL^−1
Description: Binding to plasma proteins, brain homogenates or proteins in serum-fortified HMI-9 media was determined by rapid equilibrium dialysis (RED) (Pierce, Rockford, IL) using a 48-well plate-based format according to the manufacturer's instructions. Briefly, test compound was added to fresh plasma (Bioreclamation, Liverpool, NY) at the required concentrations, freshly prepared brain homogenate or media. Duplicate aliquots of each sample were transferred into the sample chambers of the RED devices, and dialysis buffer (BupH PBS) was added to the buffer chambers. The plates were sealed and incubated at 37 °C for 4 h. After dialysis, samples collected from the buffer and tissue chambers were treated with ice-cold methanol (3 volumes for plasma or HMI-9 media, 4 volumes for brain) to precipitate proteins. The treated samples were centrifuged for 10 min at approximately 3000 g at 15 °C. The supernatants were assayed for test compound by LC-MSMS. Calibration standards and quality control samples were prepared in matched matrix and assayed with samples. Values for unbound and bound fractions and mass balance were calculated. Concordance of binding for each batch of plasma was confirmed by assay of warfarin, imipramine and carbamezapine. Acceptance criterion for mass balance was 70–120%.

[2] = system: MDCKII-hMDR1 monolayer (Pgp efflux transporter); assay: MDCKII-hMDR1 monolayer permeability and Pgp-mediated efflux; assay type: in vitro ADME
Description: The propensity of test compounds to cross the BBB was examined using an in vitro MDCKII-hMDR1 monolayer assay (Polli et al. [2001]). In summary, MDCKII-hMDR1 cells (Netherlands Cancer Institute, Amsterdam, the Netherlands) were seeded at a density of 3×10^5 cells per well onto microporous polycarbonate membranes in 12 well Costar Transwell plates (Corning Inc., Lowell, MA). The cells were incubated for 3 days during which time they formed confluent monolayers. Trans-epithelial resistance (TEER) was measured for each insert to ensure the integrity of the monolayer (acceptable TEER >160 Ω cm^2). The permeability and susceptibility for Pgp-mediated efflux was evaluated by adding each compound at a concentration of 3 μM, in the presence or absence of 2 μM GF120918 (a potent Pgp inhibitor), to the apical compartment. Competency of the Pgp efflux transporter was confirmed by assay of propranolol (non-substrate) and amprenavir (substrate). Cell monolayers were incubated in triplicate with shaking (160 rpm) at 37 °C in a 5% CO2-enriched humidified atmosphere for 1 h. Samples were removed from the apical and basolateral compartments after incubation and assayed for test compound concentrations by LC-MSMS. Values for mass balance, PappA−B, PappA−B+GF918, and absorption quotient (AQ) were calculated for each compound (Troutman and Thakker, [2003]; Thiel-Demby et al. [2004]). Acceptance criterion for mass balance was 70–120%.

T. b. brucei = assay: In vitro reversibility of trypanocidal effects (transient exposure); assay type: cell-based, Trypanosoma brucei brucei
Description: The time and concentration dependency for oxaborole-mediated killing of T. b. brucei, under constant (time-kill) and transient (reversibility) drug-pressure, was determined as described previously (Nare et al. 2010).
Reversibility was assessed as the ability T. b. brucei parasites to recover from transient exposure (0–24 h) to test benzoxaboroles (0·02–10 μg mL^−1). Trypanosomes were seeded in clear 96-well ‘V’-bottom plates at a density of 1×10^5 parasites per well; one plate was prepared for each time-point. After the designated incubation time, each plate was removed from the incubator and centrifuged at 4400 g for 5 min to sediment parasites. The supernatant containing the test compound was aspirated and three washing cycles were performed where 100 μl of warmed HMI-9 media was added to each well and then aspirated. […] Thus, each concentration and time-point was evaluated in triplicate. Each plate was incubated for a further 72 h, whereupon, trypanocidal activity was determined using resazurin (Sigma-Aldrich, St. Louis, MO) where 20 μl of a 25 mg/100 mL stock in PBS was added, incubated for an additional 4–6 h and fluorescence measured using the EnVision plate reader (excitation wavelength, 530 nm and emission wavelength, 590 nm).

[3] = Unbound brain exposure (AUC0-24) in uninfected mice after once daily oral SCYX-7158; assay type: in vivo, mouse; details: 12·5 mg kg^−1 once daily
Description: The CNS disposition and pharmacokinetics of the benzoxaboroles were evaluated in infected and uninfected mice following oral administration. In vivo phases of single-dose rodent PK studies were performed at Vivisource (Waltham, MA) following Institutional Animal Care and Use Committee (IACUC) review in an Association for Assessment and Accreditation of Laboratory Animal Care International (AAALAC)-approved facility. Studies in Trypanosoma brucei brucei (TREU 667 strain) infected mice, or uninfected satellite animals, were performed after IACUC review at Pace University (NewYork, NY).
Male CD-1 or female Swiss Webster mice (approximately 25 g) were administered test compounds by oral gavage either once (QD) or twice per day (Q12 h) with doses ranging between 6 and 100 mg kg^−1 as described below. All compounds were formulated as an in situ sodium salt in 2% (v/v) ethanol, 5% (m/v) dextrose, to yield typically clear colourless solutions that were administered at 4 mL kg^−1. Blood samples for pharmacokinetic studies were collected into polypropylene tubes containing K2EDTA anticoagulant and stored on wet ice until centrifuged and processed to plasma. Plasma was stored at −80 °C. Blood samples from mice were collected via cardiac puncture under terminal anaesthesia. Rodents were euthanized in a CO2 chamber before collection of terminal blood or tissue samples. Brain tissues were blotted dry and stored at approximately −80 °C.
Pharmacokinetic studies were performed in CD-1 mice to establish AUC0–24 following single and 7×once daily oral doses of 6·25, 12·5, 25, 50 and 100 mg kg^−1 SCYX-7158 (Jacobs et al. [2011]). […] Values for unbound AUC0–24 in brain were calculated using the single and steady-state exposure data (non-parametric super-positioning indicated steady-state was mostly attained on day 2 so day 7 data were employed for days 2–7 rather than modelled data for days 2–6) and compared to the target unbound AUC from the in vitro reversibility studies (Fig. 9).

Mass balance [1]: 110%
P-gp classification [2]: Non-substrate
Mass balance A–B+GF918 ([2]; 3 μM, with GF918): 75%
Mass balance A–B ([2]; 3 μM, without GF918): 79%
time unbound concentration in brain tissue exceeded IC50u on each day [3]: 10 h
time unbound concentration in brain tissue exceeded MICu on each day [3]: 4 h
unbound AUC0–24 as percentage of the target MICu AUC [3]: approximately 50%
Compound: CC1(C)OB(O)c2cc(NC(=O)c3ccc(F)cc3C(F)(F)F)ccc21 [SCYX-7158]
IC50 (L929 mammalian cell line; Mus musculus, L929 mammalian cell line, cytotoxicity): 50 µg/mL (≈ 136 µM)
Selectivity (L929 mammalian cell line; parasite vs L929): ⩾138
reduction in survival relative to untreated control parasites (T. b. brucei; Cu 0·123 μg mL^−1 (Ct 0·313 μg mL^−1), 24 h incubation): 24%
exposure time tolerated without impact on survival (T. b. brucei; Cu 1·11 μg mL^−1 (Ct 1·25 μg mL)): 8 h
